Measured values as given in article PMC10539439 (Pharmacological Reports, 2023).

Assay: Blood pressure, 24-h telemetric method, normotensive rats
Type: in vivo, rat
Conditions: telemetry, 5 mg/kg
Method: The blood pressure of rats treated with the tested compound was measured for a 24 h period after ip treatment (5 mg/kg b.w.) with a special telemetric system Stellar (TSE-Systems, Germany).
Surgery: The operation was carried out over 30 min under sterile conditions. Rats were anaesthetized with ketamine and xylasine (intramuscular injection: 100 mg/kg and 10 mg/kg). Before surgery and for 7 days after, the animals were also treated with cefuroxime (20 mg/kg/day) via intramuscular injection and ketoprofen (5 mg/kg/day) via ip injection. […] The transmitter was sutured to the peritoneal cavity.
The rats were individually caged for 2 weeks to heal after surgical cut. The animals were then placed in pairs in cages to reduce their isolation stress. Blood pressure was measured: before ip administration of the compounds – time 0 min and 24 h thereafter.

[1] = after first administration, time 12, n 6
[2] = after first administration, time 13, n 6
[3] = after first administration, time 14, n 6
[4] = after first administration, time 15, n 6
[5] = after first administration, time 16, n 6
[6] = after first administration, time 17, n 6
[7] = after first administration, time 18, n 6
[8] = after first administration, time 19, n 6
[9] = after first administration, time 20, n 6
[10] = after first administration, time 21, n 6
[11] = after first administration, time 22, n 6
[12] = after first administration, time 23, n 6
[13] = after first administration, time 24, n 6
[14] = after forteenth administration, time 0, n 6
[15] = after forteenth administration, time 0.25, n 6
[16] = after seventh administration, time 0, n 6
[17] = after seventh administration, time 0.25, n 6
[18] = after seventh administration, time 0.5, n 6
[19] = after seventh administration, time 0.75, n 6
[20] = after seventh administration, time 1, n 6
[21] = after seventh administration, time 1.25, n 6
[22] = after seventh administration, time 1.5, n 6
[23] = after seventh administration, time 1.75, n 6
[24] = after seventh administration, time 2, n 6
[25] = after seventh administration, time 3, n 6
[26] = after seventh administration, time 4, n 6
[27] = after seventh administration, time 5, n 6
[28] = after seventh administration, time 6, n 6
[29] = after seventh administration, time 7, n 6
[30] = after seventh administration, time 8, n 6
[31] = after seventh administration, time 9, n 6
[32] = after seventh administration, time 10, n 6
[33] = after seventh administration, time 11, n 6
[34] = after seventh administration, time 12, n 6
[35] = after seventh administration, time 13, n 6
[36] = after seventh administration, time 14, n 6
[37] = after seventh administration, time 15, n 6
[38] = after seventh administration, time 16, n 6
[39] = after seventh administration, time 17, n 6
[40] = after seventh administration, time 18, n 6
[41] = after seventh administration, time 19, n 6
[42] = after seventh administration, time 20, n 6
[43] = after seventh administration, time 21, n 6
[44] = after seventh administration, time 22, n 6
[45] = after seventh administration, time 23, n 6
[46] = after seventh administration, time 24, n 6

Q: With N=C(N)N/N=C/c1c(Cl)cc(O)cc1Cl [4HOGuanabenz] as the compound, how does the “systolic pressure, mean” value (after first administration, time 11, n 6) read?
A: 107.6 mmHg

Q: What about the “diastolic pressure, mean” value [1] of the same compound?
A: 80.25 mmHg

Q: And the “systolic pressure, mean” value [1]?
A: 121.9 mmHg

Q: What about the “diastolic pressure, mean” value [2] of the same compound?
A: 74.5 mmHg

Q: And the “systolic pressure, mean” value [2]?
A: 114.9 mmHg

Q: What about the “diastolic pressure, mean” value [3] of the same compound?
A: 81.88 mmHg

Q: What about the “systolic pressure, mean” value [3] of the same compound?
A: 122.6 mmHg

Q: And the “diastolic pressure, mean” value [4]?
A: 71.63 mmHg

Q: What about the “systolic pressure, mean” value [4] of the same compound?
A: 109.4 mmHg

Q: And the “diastolic pressure, mean” value [5]?
A: 72.75 mmHg

Q: And the “systolic pressure, mean” value [5]?
A: 108.4 mmHg

Q: And the “diastolic pressure, mean” value [6]?
A: 76.75 mmHg

Q: What about the “systolic pressure, mean” value [6] of the same compound?
A: 112.6 mmHg

Q: And the “diastolic pressure, mean” value [7]?
A: 78.75 mmHg

Q: And the “systolic pressure, mean” value [7]?
A: 115.3 mmHg

Q: What about the “diastolic pressure, mean” value [8] of the same compound?
A: 79.5 mmHg

Q: What about the “systolic pressure, mean” value [8] of the same compound?
A: 117.3 mmHg

Q: What about the “diastolic pressure, mean” value [9] of the same compound?
A: 77 mmHg

Q: And the “systolic pressure, mean” value [9]?
A: 117.8 mmHg

Q: And the “diastolic pressure, mean” value [10]?
A: 76.63 mmHg

Q: What about the “systolic pressure, mean” value [10] of the same compound?
A: 117.8 mmHg

Q: What about the “diastolic pressure, mean” value [11] of the same compound?
A: 71.5 mmHg

Q: And the “systolic pressure, mean” value [11]?
A: 109.5 mmHg

Q: And the “diastolic pressure, mean” value [12]?
A: 73.38 mmHg

Q: What about the “systolic pressure, mean” value [12] of the same compound?
A: 109.5 mmHg

Q: What about the “diastolic pressure, mean” value [13] of the same compound?
A: 77.63 mmHg

Q: What about the “systolic pressure, mean” value [13] of the same compound?
A: 114.3 mmHg

Q: What about the “diastolic pressure, mean” value [14] of the same compound?
A: 70.25 mmHg

Q: What about the “systolic pressure, mean” value [14] of the same compound?
A: 110.5 mmHg

Q: And the “diastolic pressure, mean” value [15]?
A: 90.75 mmHg

Q: What about the “systolic pressure, mean” value [15] of the same compound?
A: 139.3 mmHg

Q: And the “diastolic pressure, mean” value [16]?
A: 74.83 mmHg

Q: And the “systolic pressure, mean” value [16]?
A: 108.2 mmHg

Q: And the “diastolic pressure, mean” value [17]?
A: 97.5 mmHg

Q: What about the “systolic pressure, mean” value [17] of the same compound?
A: 141.8 mmHg

Q: And the “diastolic pressure, mean” value [18]?
A: 76.75 mmHg

Q: What about the “systolic pressure, mean” value [18] of the same compound?
A: 114.3 mmHg

Q: What about the “diastolic pressure, mean” value [19] of the same compound?
A: 77.5 mmHg

Q: What about the “systolic pressure, mean” value [19] of the same compound?
A: 111.5 mmHg

Q: And the “diastolic pressure, mean” value [20]?
A: 76.75 mmHg

Q: And the “systolic pressure, mean” value [20]?
A: 109.3 mmHg

Q: And the “diastolic pressure, mean” value [21]?
A: 74.25 mmHg

Q: What about the “systolic pressure, mean” value [21] of the same compound?
A: 106.8 mmHg

Q: What about the “diastolic pressure, mean” value [22] of the same compound?
A: 74 mmHg

Q: And the “systolic pressure, mean” value [22]?
A: 107.3 mmHg

Q: And the “diastolic pressure, mean” value [23]?
A: 70.75 mmHg

Q: And the “systolic pressure, mean” value [23]?
A: 102 mmHg

Q: What about the “diastolic pressure, mean” value [24] of the same compound?
A: 67.25 mmHg

Q: What about the “systolic pressure, mean” value [24] of the same compound?
A: 100.5 mmHg

Q: What about the “diastolic pressure, mean” value [25] of the same compound?
A: 74 mmHg

Q: And the “systolic pressure, mean” value [25]?
A: 109 mmHg

Q: And the “diastolic pressure, mean” value [26]?
A: 74.75 mmHg

Q: And the “systolic pressure, mean” value [26]?
A: 109.3 mmHg

Q: And the “diastolic pressure, mean” value [27]?
A: 74.25 mmHg

Q: And the “systolic pressure, mean” value [27]?
A: 110.3 mmHg

Q: What about the “diastolic pressure, mean” value [28] of the same compound?
A: 79.75 mmHg

Q: And the “systolic pressure, mean” value [28]?
A: 113.8 mmHg

Q: What about the “diastolic pressure, mean” value [29] of the same compound?
A: 70.5 mmHg

Q: And the “systolic pressure, mean” value [29]?
A: 113.3 mmHg

Q: And the “diastolic pressure, mean” value [30]?
A: 78.75 mmHg

Q: What about the “systolic pressure, mean” value [30] of the same compound?
A: 116.3 mmHg

Q: And the “diastolic pressure, mean” value [31]?
A: 75.5 mmHg

Q: And the “systolic pressure, mean” value [31]?
A: 119.5 mmHg

Q: What about the “diastolic pressure, mean” value [32] of the same compound?
A: 65.5 mmHg

Q: What about the “systolic pressure, mean” value [32] of the same compound?
A: 106 mmHg

Q: And the “diastolic pressure, mean” value [33]?
A: 75.75 mmHg

Q: And the “systolic pressure, mean” value [33]?
A: 117.3 mmHg

Q: What about the “diastolic pressure, mean” value [34] of the same compound?
A: 65.5 mmHg

Q: And the “systolic pressure, mean” value [34]?
A: 116.8 mmHg

Q: And the “diastolic pressure, mean” value [35]?
A: 79.25 mmHg

Q: And the “systolic pressure, mean” value [35]?
A: 121.5 mmHg

Q: And the “diastolic pressure, mean” value [36]?
A: 74 mmHg

Q: What about the “systolic pressure, mean” value [36] of the same compound?
A: 111.5 mmHg

Q: What about the “diastolic pressure, mean” value [37] of the same compound?
A: 77.25 mmHg

Q: What about the “systolic pressure, mean” value [37] of the same compound?
A: 113.3 mmHg

Q: What about the “diastolic pressure, mean” value [38] of the same compound?
A: 71.5 mmHg

Q: What about the “systolic pressure, mean” value [38] of the same compound?
A: 107.3 mmHg

Q: What about the “diastolic pressure, mean” value [39] of the same compound?
A: 79 mmHg

Q: What about the “systolic pressure, mean” value [39] of the same compound?
A: 122.3 mmHg

Q: What about the “diastolic pressure, mean” value [40] of the same compound?
A: 77 mmHg

Q: And the “systolic pressure, mean” value [40]?
A: 117.5 mmHg

Q: And the “diastolic pressure, mean” value [41]?
A: 77 mmHg

Q: What about the “systolic pressure, mean” value [41] of the same compound?
A: 120.5 mmHg

Q: And the “diastolic pressure, mean” value [42]?
A: 76.25 mmHg

Q: And the “systolic pressure, mean” value [42]?
A: 122.3 mmHg

Q: What about the “diastolic pressure, mean” value [43] of the same compound?
A: 69.25 mmHg

Q: And the “systolic pressure, mean” value [43]?
A: 110 mmHg

Q: And the “diastolic pressure, mean” value [44]?
A: 68 mmHg

Q: And the “systolic pressure, mean” value [44]?
A: 108 mmHg

Q: And the “diastolic pressure, mean” value [45]?
A: 63.75 mmHg

Q: What about the “systolic pressure, mean” value [45] of the same compound?
A: 107 mmHg

Q: And the “diastolic pressure, mean” value [46]?
A: 67.5 mmHg

Q: What about the “systolic pressure, mean” value [46] of the same compound?
A: 105 mmHg
